tested on: plasma kallikrein; assay: Inhibition of the production of plasma kallikrein (kaolin-activated plasma, synthetic substrate); assay type: biochemical; details: normal human plasma, kaolin activation, substrate D-Pro-Phe-Arg-p-nitroaniline
Method: The inhibitory action of the physiologically-active substance against the production of plasma kallikrein was measured according to a method described in Kiso to Rinsho, vol. 20, no. 17, pages 399-405 (1986).
Thus, a suspension of kaolin was added to normal human plasma diluted with a physiologically saline solution. A lima bean trypsin inhibitor was added thereto after a certain period to stop the kallikrein procluction reaction. Then the resulting kallikrein was determined by using a synthetic substrate (D-Pro-Phe-Arg-p-nitroaniline). The test substance was placed in the above system whereby the inhibitory action of the test substance against the production of kallikrein was determined.
In Table 1 the potency of the activity is given in terms of the concentration (IC50) at which the production of the plasma kallikrein was inhibited to an extent of 50%: […]

Structure (SMILES) | IC50, concentration at which the production of the plasma kallikrein was inhibited to an extent of 50%
CC(C(=O)O)c1cccc(C(=O)c2ccccc2)c1 (stereo not drawn) [Ketoprofen] | 400 micrograms/ml
CC(C)Cc1ccc(C(C)C(=O)O)cc1 (stereo not drawn) [Ibuprofen] | 700 micrograms/ml
CC(C)=CCN1CCC2(C)c3cc(O)ccc3CC1C2C (stereo not drawn) [Pentazocine] | 1,600 micrograms/ml

Source: patent US5560935A, “Physiologically active substances extracted from activated tissues” (Nippon Zoki Pharmaceutical Co., Ltd., priority 1993, dated 1996)
